The values that follow come from patent publication US10239840B2, “Benzoazepine derivatives” (ViiV HEALTHCARE UK LIMITED, priority 2015, dated 2019).

The term IC50 denotes the concentration needed to halve the response being measured.

The subject of the test is HIV. The test is described as follows: MT4 assay, antiviral HIV activity. The format is cell-based. The note with it: MT-4 cells (HTLV-1 transformed), read-out at 96 hours with cell titer glo. The protocol: Antiviral HIV activity and cytotoxicity values for compounds of the invention from Table 1 were measured in parallel in the HTLV-1 transformed cell line MT-4 based on the method previously described (Hazen et al., 2007, In vitro antiviral activity of the novel, tyrosyl-based human immunodeficiency virus (HIV) type 1 protease inhibitor brecanavir (GW640385) in combination with other antiretrovirals and against a panel of protease inhibitor-resistant HIV (Hazen et al., “In vitro antiviral activity of the novel, tyrosyl-based human immunodeficiency virus (HIV) type 1 protease inhibitor brecanavir (GW640385) in combination with other antiretrovirals and against a panel of protease inhibitor-resistant HIV”, Antimicrob. Agents Chemother. 2007, 51: 3147-3154; and Pauwels et al., “Sensitive and rapid assay on MT-4 cells for the detection of antiviral compounds against the AIDS virus”, J. of Virological Methods 1987, 16: 171-185).
Luciferase activity was measured 96 hours later by adding a cell titer glo (Promega, Madison, Wis.). Percent inhibition of cell protection data was plotted relative to no compound control. Under the same condition, cytotoxicity of the compounds was determined using cell titer Glo™ (Promega, Madison, Wis.). IC50s were determined from a 10 point dose response curve using 3-4-fold serial dilution for each compound, which spans a concentration range >1000 fold.
These values are plotted against the molar compound concentrations using the standard four parameter logistic equation: y=((Vmax*x^n)/(K^n+x^n)+Y2
Y2=minimum γ n=slope factor
Vmax=maximum γ x=compound concentration [M]
(In ATP-based viability assays light output follows the ATP content of the culture.)

Consider `Cc1c2c(c(C)c([C@H](OC(C)(C)C)C(=O)O)c1-c1ccccc1)CCN(C(=O)c1cccc(F)c1)CC2` [Example 3, (S)-2-(tert-butoxy)-2-(3-(3-fluorobenzoyl)-6,9-dimethyl-8-phenyl-2,3,4,5-tetrahydro-1H-benzo[d]azepin-7-yl)acetic Acid], for which the IC50 was determined as 219 nM.

Regarding `Cc1ccc(-c2c(C)c3c(c(C)c2[C@H](OC(C)(C)C)C(=O)O)CCN(C(=O)c2cccc(F)c2)CC3)cc1` [Example 4, (S)-2-(tert-butoxy)-2-(3-(3-fluorobenzoyl)-6,9-dimethyl-8-(p-tolyl)-2,3,4,5-tetrahydro-1H-benzo[d]azepin-7-yl)acetic Acid], the half-inhibitory concentration (IC50) worked out at 34 nM.
